Experimental data from patent publication US10893676B2, “1-acetyl-3-phenyl urea compound, and use thereof” (Sumitomo Chemical Company, Limited, priority 2016, dated 2021).

Key:
Amaranthus retroflexus = test: Post-emergence treatment test in a farmland (foliar spray, greenhouse pots); assay type: in vivo; conditions: application rate 4 kg/ha, sprayed at two-leaf stage, visually evaluated nine days after spraying, 11 stages from 0 (no effect) to 10 (complete kill)
Procedure: Nursery soil was put in a plastic pot measuring 8 cm in diameter and 6.5 cm in height, and in the pot, seeds of Amaranthus retroflexus were sown, and then covered with soil of about 0.5 cm thickness, and the plants were grown in a greenhouse. When the Amaranthus retroflexus plants were grown to two-leaf stage, a diluted solution containing either the present compound or a compound represented by formula (B) below (which is described in European Patent No. 1122244 B2) (hereinafter, referred to as Compound B) was uniformly sprayed on the whole Amaranthus retroflexus plants so that the application rates of the chemicals would be values indicated in Table 1.
Here the diluted solution was prepared by dissolving the present compound or the compound B in dimethylformamide solution containing 2% of Tween 20 (polyoxyethylene sorbitan fatty acid ester) (manufactured by MP Biomedicals Inc.) and then diluting the solution with deionized water.
The Amaranthus retroflexus plants that were sprayed with the diluted solution containing the present compound or the compound B were grown in a greenhouse. Nine days after spraying, the efficacy for controlling Amaranthus retroflexus plants was observed, thereby examining a herbicidal effect. Here the herbicidal effect was visually observed and evaluated by classifying the effect into 11 stages from 0 (no effect) to 10 (complete kill).

Arabidopsis thaliana = test: Inhibitory activity on emergence of Arabidopsis thaliana (24 well plate, filter paper); assay type: in vivo; conditions: treatment concentration 8000 ppm, visually evaluated seven days after sowing, indices 0 (no effect) to 100 (no emergence)
Procedure: Inhibitory Activity on Emergence of Arabidopsis thaliana
Each well of 24 well microtiter plates was matted with a filter paper, and to the filter paper was added dropwise the solution in which the present compound or the compound B was dissolved in acetone. After air-drying, distilled water was added to each well so that the concentration of the present compound or the compound B in each well would be 8000 ppm. Next, seeds of Arabidopsis thaliana were sown into each well containing the present compound or the compound B, followed by putting a lid on each well, and cultivating Arabidopsis thaliana under the condition that a cultivation at 25° C. under lighting for 16 hours and a successive cultivation at 25° C. under dark for 8 hours were repeated. Seven days after sowing, the inhibitory activity on emergence of Arabidopsis thaliana was visually evaluated by classifying the activity into 0 to 100 indices (0: no effect to 100: no emergence).

Row | Structure (SMILES) | Herbicidal Effect (Amaranthus retroflexus) | Herbicidal Effect (Amaranthus retroflexus; listed as present compound) | Inhibitory Activity on Emergence (Arabidopsis thaliana) | Inhibitory Activity on Emergence (Arabidopsis thaliana; listed as present compound)
1 | CCOC(=O)COc1ncccc1Oc1cc(NC(=O)NC(C)=O)c(F)cc1Cl [Present compound] | 8 | higher herbicidal effect compared to the compound B | 80 | higher inhibitory activity compared to the compound B
2 | CCOC(=O)COc1ncccc1Oc1cc(NC(C)=O)c(F)cc1Cl [Compound B, N-[4-chloro-2-fluoro-5-{2-(ethoxycarbonyl)methoxy-3-pyridyloxy}phenyl]acetamide, reference compound] | 1 |  | 30 | 
